In publication PMC11521309, “A novel 4-aminoquinoline chemotype with multistage antimalarial activity and lack of cross-resistance with PfCRT and PfMDR1 mutants” (PLOS Pathogens, 2024):
Several values for one entry are separate records, joined by “and”; a condition that tells them apart may be missing. Identical values can stand only once.

Legend:
P. falciparum Dd2^M343L = test system: P. falciparum Dd2^M343L; set-up: key to Phenotype, Dd2^M343L: S: sensitive; R: resistant; conditions: cited from earlier work
P. falciparum Dd2^G353V = test system: P. falciparum Dd2^G353V; set-up: key to Phenotype, Dd2^G353V: S: sensitive; R: resistant; conditions: cited from earlier work
[1] = test system: P. berghei PbGFP-Luccon liver stage; assay: In vitro inhibition of liver stage infection of Huh-7 cells, bioluminescence; assay type: cell-based, Plasmodium berghei
Method: (§1) In vitro inhibition of Plasmodium liver stage infection was assessed using bioluminescence data from Huh-7 cells infected with a firefly-luciferase-expressing P. berghei line, PbGFP-Luccon, in the presence of various compound concentrations. […] One day before drug treatment and infection, 10^4 Huh-7 cells/well were seeded in 96-well plates. The medium was then replaced by an infection medium (culture medium supplemented with 50 μg/mL gentamycin and 0.8 μg/mL amphotericin B) containing desired concentrations of test compounds. Fresh sporozoites recovered from salivary glands of infected female Anopheles stephensi mosquitoes were added to seeded Huh-7 cells at a 1:1 proportion, followed by centrifugation at 1700g for 5 minutes and incubation for 46 hours at 37°C under 5% CO2. Compound toxicity against Huh-7 cells was assessed by measuring […] using the Alamar Blue assay (Invitrogen). IC50 values were calculated using nonlinear regression analysis (GraphPad Prism version 9).

[2] = Host cell confluency, Alamar Blue; assay type: cell-based, human; conditions: human, pH 7; maximum concentration of 4 μM; read-out: Huh-7 cell viability
Method: as §1

Huh-7 cells = assay: Host cell confluency, Alamar Blue; assay type: cell-based, human
Method: as §1

[3] = test system: PfCRT variants (7G8, 7G8^F145I, 7G8^C350R); assay: SSM-based electrophysiology (SURFE2R N1) of PfCRT proteoliposomes; assay type: biochemical, Plasmodium falciparum; conditions: 10 μM, distinct PfCRT isoforms
Method: Solid Supported Membrane (SSM)-based electrophysiological measurements were performed using SURFE^2R N1 technology (Nanion Technologies, Inc.) according to published protocols. Briefly, sensors were coated with 1-octadecanethiol (Sigma-Aldrich), rinsed, and 1,2-diphytanoyl-sn-glycero-3-phosphocholine (Avanti Polar Lipids, Inc) was added. Immediately, the sensor was filled with 50 μL non-activating buffer (10 mM Tris-MES, pH 5.5) and PfCRT-containing proteoliposomes (PLs). To generate a K^+ diffusion potential-driven ΔΨ, valinomycin was included at a final concentration of 80 nM [34, 35]. The activating solution (10 mM Tris-MES, pH 5.5 containing either 10 μM CQ, PPQ, LDT-623, pyrimethamine, or atovaquone) was applied using a single-solution exchange protocol (activating buffer incubation for 1 second). Each measurement was repeated at least twice employing at least three different sensors. Peak currents for PfCRT were corrected by subtracting the peak currents recorded with control liposomes (lacking this transporter). To acquire the PfCRT-elicited charge (Coulomb) movement associated with drug transport, the area under the curve (current as a function of time) was analyzed with GraphPad Prism version 10.

[4] = test system: P. falciparum Dd2-Polδ Flask 1; assay: ABS susceptibility after resistance selection, recrudescent line; assay type: cell-based, Plasmodium falciparum; conditions: for % Parasite survival: Dd2 Pol D Flask 1, rep 1-5
Method: (§2) P. falciparum ABS parasites were cultured at 3% hematocrit in human O^+ RBCs in RPMI-1640 media supplemented with 25 mM HEPES, 50 mg/L hypoxanthine, 2 mM L-glutamine, 0.21% sodium bicarbonate, 0.5% (w/v) AlbuMAXII (Invitrogen) and 10 μg/mL gentamycin. Culture flasks were kept in modular incubator chambers (Billups-Rothenberg) in a 5% O2, 5% CO2, and 90% N2 atmosphere at 37°C. Synchronized ring-stage parasites were obtained by two consecutive rounds of treatment with 5% D-sorbitol in 48-hour intervals. […] This was done by exposing cultures at 1% hematocrit and 0.3% parasitemia in 96-well plates in the presence of drugs in a two-fold 10 or 12-point serial dilution in duplicate along with drug-free controls. After a 72-hour incubation, parasite survival was assessed by flow cytometry on an iQue flow cytometer (Sartorius) using SYBR Green and MitoTracker Deep Red FM (Life Technologies) as nuclear stain and vital dye, respectively. Parasite survival was determined as a percentage relative to drug-free control. IC50 values were interpolated from log concentration versus response curves in Prism 9 (GraphPad Prism Software Inc.).
(§3) Resistance to LDT-623 was assessed using single-step in vitro resistance selection protocols. […] Dd2-Pol δ is a hypermutable line with two point mutations in DNA polymerase δ that compromise its proofreading activity Cultures were monitored daily by thin blood smears until live parasites were no longer detectable. Drug-containing media was changed daily until parasites cleared, and every other day thereafter. Cultures were passaged once weekly by reducing the volume by 25% and replacing 1/3 of RBCs. Recrudescence monitoring was carried out twice a week by thin blood smears for 60 days. In the event of recrudescence, parasite susceptibility to LDT-623 was tested as described above.

[5] = test system: P. falciparum Dd2-Polδ Flask 2; assay: as above; assay type: cell-based, Plasmodium falciparum; conditions: for % Parasite survival: Dd2 Pol D Flask 2, rep 1-5
Method: as §2, §3

[6] = 0.01 µM, Rep #1, Rep #2 singly, DMSO = 100
[7] = 0.10 µM, Rep #1, Rep #2 singly, DMSO = 100
[8] = 0.50 µM, Rep #1, Rep #2 singly, DMSO = 100
[9] = 1.00 µM, Rep #1, Rep #2 singly, DMSO = 100
[10] = 1.50 µM, Rep #2 only, DMSO = 100
[11] = 2.00 µM, Rep #1, Rep #2 singly, DMSO = 100
[12] = 3.00 µM, Rep #1, Rep #2 singly, DMSO = 100
[13] = 4.00 µM, Rep #1 only, DMSO = 100

CCN(CC)CCCC(C)Nc1ccnc2cc(Cl)ccc12 (stereo not drawn) [CQ, chloroquine]
IC50 (P. falciparum Dd2^M343L; Dd2M343L, mean ± SEM, ref 1 (Ross et al., 2018)): 0.0418 ± 0.0019 µM
Phenotype, Dd2^M343L (P. falciparum Dd2^M343L; ref [19],[20],[51]): R
IC50 (P. falciparum Dd2^G353V; Dd2G353V, mean ± SEM, ref 1 (Ross et al., 2018)): 0.0546 ± 0.0049 µM
Phenotype, Dd2^G353V (P. falciparum Dd2^G353V; ref [19],[20],[51]): S

COc1cc2nccc(Nc3cccc(Oc4ccccc4)c3)c2cc1OC [LDT-623]
% Infection ([1]; 0.01 µM, Average): 105.58%
% Infection [1, 6]: 99.71% and 111.44%
% Infection ([1]; 0.10 µM, Average): 109.90%
% Infection [1, 7]: 116.90% and 102.90%
% Infection ([1]; 0.50 µM, Average): 89.46%
% Infection [1, 8]: 98.58% and 80.35%
% Infection ([1]; 1.00 µM, Average): 47.89%
% Infection [1, 9]: 59.84% and 35.94%
% Infection ([1]; 1.50 µM, Average): 16.43%
% Infection [1, 10]: 16.43%
% Infection ([1]; 2.00 µM, Average): 10.50%
% Infection [1, 11]: 13.79% and 7.22%
% Infection ([1]; 3.00 µM, Average): 3.61%
% Infection [1, 12]: 5.04% and 2.18%
% Infection ([1]; 4.00 µM, Average): 3.01%
% Infection [1, 13]: 3.01%
inhibition at 1 µM ([1]; Plasmodium berghei, Huh-7, 1 μM, read-out: inhibition of hepatic infection): 52.1%
IC50 ([1]; Plasmodium berghei, Huh-7 cells, P. berghei sporozoites, 48h, N = 2, read-out: IC50 hepatic stage infection): 0.983 µM
viability at 46 h, 4 µM [2]: > 86%
% Confluency (Huh-7 cells; 0.01 µM, Average): 101.66%
% Confluency (Huh-7 cells; [6]): 99.85% and 103.48%
% Confluency (Huh-7 cells; 0.10 µM, Average): 101.70%
% Confluency (Huh-7 cells; [7]): 101.55% and 101.85%
% Confluency (Huh-7 cells; 0.50 µM, Average): 106.57%
% Confluency (Huh-7 cells; [8]): 104.91% and 108.24%
% Confluency (Huh-7 cells; 1.00 µM, Average): 99.74%
% Confluency (Huh-7 cells; [9]): 99.78% and 99.70%
% Confluency (Huh-7 cells; 1.50 µM, Average): 103.34%
% Confluency (Huh-7 cells; [10]): 103.34%
% Confluency (Huh-7 cells; 2.00 µM, Average): 99.65%
% Confluency (Huh-7 cells; [11]): 99.68% and 99.63%
% Confluency (Huh-7 cells; 3.00 µM, Average): 92.74%
% Confluency (Huh-7 cells; [12]): 93.69% and 91.80%
% Confluency (Huh-7 cells; 4.00 µM, Average): 86.71%
% Confluency (Huh-7 cells; [13]): 86.71%
PfCRT-specific currents [3]: elicits the same magnitude of currents as CQ and PPQ
% Parasite survival ([4]; 0.09 uM): 100.00% and 83.53% and 90.04% and 99.83%
% Parasite survival ([4]; 0.19 uM): 92.44% and 73.57% and 80.08% and 80.97% and 100.00%
% Parasite survival ([4]; 0.78 uM): 0.00%
% Parasite survival ([4]; 1.56 uM): 0.00% and 1.04%
% Parasite survival ([4]; 50 uM): 0.00% and 0.35%
mean AUC of survival curve ([4]; recrudescent parasites, Flask 1): 53.8
% Parasite survival ([5]; 0.09 uM): 88.00% and 80.84% and 100.00% and 86.03%
% Parasite survival ([5]; 0.19 uM): 82.04% and 70.05% and 89.31% and 86.03% and 100.00%
% Parasite survival ([5]; 0.78 uM): 0.00% and 7.11% and 0.21%
% Parasite survival ([5]; 1.56 uM): 1.80% and 2.03% and 1.07% and 0.00%
% Parasite survival ([5]; 3.12 uM): 7.60% and 5.20% and 3.53% and 0.39% and 7.52%
% Parasite survival ([5]; 25 uM): 0.00% and 7.74% and 3.09%
% Parasite survival ([5]; 50 uM): 0.00% and 5.80%
mean AUC of survival curve ([5]; recrudescent parasites, Flask 2): 22.3
